In US7993687B2, “Compositions and methods for management of diabetes” (priority 2006, dated 2011):
Entries after “also recorded” stand apart in the source; their conditions may differ.

Key:
[1] = test system: p42/44 MAPK (Thr202/Tyr204); assay: Western blot of MAPK phosphorylation in H4IIE cells; type: cell-based, rat; settings: for phosphorylation of MAPK (FIG. 9): 6 minutes, insulin 250 nM, 2 μL of BWE, D-CI or MI solution
Protocol: Tissue culture media, antibiotics, fetal bovine serum (FBS) and Nunc tissue culture plates were purchased from Invitrogen Canada Inc. (Burlington, Ontario, Canada, L7P 1A1). Insulin (Sigma-Aldrich Canada Ltd., Oakville, Ontario, Canada, L6H 6J8) was dissolved in water and added directly to cells at a concentration of 250 nM unless otherwise indicated. The BWE was prepared and analyzed as described in Example 1. Two μL of the BWE were added directly to cells unless otherwise indicated. […] Myo-inositol (Sigma-Aldrich Canada Ltd.) and D-chiro-inositol (Industrial Research Ltd., Wellington, New Zealand) were dissolved in water at an equal concentration to the amounts present in the BWE (Table 3) and 2 μL of each solution (0.1% v/v final concentration) was added directly to cells.
(§1) Rat H4IIE hepatoma cells (American Type Culture Collection, CRL 1548) were cultured following the method disclosed by Yau et al., (1998, Eur. J. Biochem. 253: 91-1). The H4IIE cells were maintained in α-modified Eagle's media containing 10% FBS, 2 mM glutamine, 25 μg·mL^−1 streptomycin and 25 units·mL^−1 penicillin. Cells were plated and grown to 70% confluence. All cells were placed into serum-free medium for 72 h before addition of stimulating agents to ensure entry into a quiescent state.
(§2) Cultures of quiescent H4IIE cells or quiescent FAO cells were placed into 12-well culture dishes containing 2 mL serum-free medium, and then stimulated by direct addition of the inhibitors listed in Table 1 (volumes of additions were 10 μL or less) without replacing the medium. […] The cells in 12-well culture dishes were incubated with stimulating agents for 6 minutes and rinsed with phosphate buffered saline (PBS; 0.9% NaCl, 0.1 M Na3PO4, pH 7.1).
(§3) Cellular protein extracts were prepared by addition of 200 μL 2×SDS/gel loading buffer (0.125 M Tris pH 6.8, 2% SDS, 10% glycerol) to H4IIE cells in 12-well culture dishes. The samples were briefly sonicated, and protein content measured using the BCA protein assay kit. Aliquots containing equal amounts of protein were mixed with bromophenol blue (0.5% (w/v) final concentration) and 2-mercaptoethanol (5% (v/v) final concentration), heated at 95° C. and loaded onto 7.5% or 10% polyacrylamide gels. […] Primary antibodies (diluted 1:1000 in 3% (w/v) BSA) were incubated with the membrane for 60 min at 22° C. Membranes were subsequently washed four times and incubated for an additional 60 min at 1 8-22° C. in 1% (w/v) BSA-TBST with diluted HRP-coupled secondary antibody (1:10 000). HRP was detected using the ECL chemiluminescent system after the membranes had been washed four times.
Quantification of data obtained on film (Kodak X-omat) was accomplished with a GS800 imaging densitometer (Bio-Rad Laboratories) under nonsaturating conditions with local background subtraction. Although multiple exposures were acquired to ensure the absence of film saturation, the experimental figures typically show longer exposures selected specifically for visual presentation and not necessarily used for data analysis. Graphical data are presented as means±SE for a minimum of three replicate samples. […]

PDK-1 (Ser241) = assay: Western blot of PDK-1 phosphorylation in H4IIE cells; type: cell-based, rat; settings: for PDK-1 (Ser241) phosphorylation, stimulation (fold) relative to the control: 6 min, one experiment
Protocol: (§4) Tissue culture media, antibiotics, fetal bovine serum (FBS) and Nunc tissue culture plates were purchased from Invitrogen Canada Inc. (Burlington, Ontario, Canada, L7P 1A1). Insulin (Sigma-Aldrich Canada Ltd., Oakville, Ontario, Canada, L6H 6J8) was dissolved in water and added directly to cells at a concentration of 250 nM unless otherwise indicated. The BWE was prepared and analyzed as described in Example 1. Two μL of the BWE were added directly to cells unless otherwise indicated. This amount was chosen on the basis of equivalence to insulin. Myo-inositol (Sigma-Aldrich Canada Ltd.) and D-chiro-inositol (Industrial Research Ltd., Wellington, New Zealand) were dissolved in water at an equal concentration to the amounts present in the BWE (Table 3) and 2 μL of each solution (0.1% v/v final concentration) was added directly to cells.
as §1, §2, §3
(§5) Quantification of data obtained on film (Kodak X-omat) was accomplished with a GS800 imaging densitometer (Bio-Rad Laboratories) under nonsaturating conditions with local background subtraction. Although multiple exposures were acquired to ensure the absence of film saturation, the experimental figures typically show longer exposures selected specifically for visual presentation and not necessarily used for data analysis. Graphical data are presented as means±SE for a minimum of three replicate samples.

[2] = test system: p70S6K (Thr389 and Thr421); assay: Western blot of p70S6K phosphorylation in H4IIE cells; type: cell-based, rat
Protocol: as §4, §1, §2, §3, §5

Raf (Ser259) = assay: Western blot of Raf phosphorylation in H4IIE cells; type: cell-based, rat; settings: for Raf (Ser259) phosphorylation, stimulation (fold) relative to the control: 6 min, one experiment
Protocol: as §4, §1, §2, §3, §5

Akt (Ser473) = assay: Western blot of Akt phosphorylation in H4IIE cells; type: cell-based, rat; settings: 6 minutes
Protocol: as §4
as §1, with “state. […]” for “state.”
(§6) Cellular protein extracts were prepared by addition of 200 μL 2×SDS/gel loading buffer (0.125 M Tris pH 6.8, 2% SDS, 10% glycerol) to H4IIE cells in 12-well culture dishes. The samples were briefly sonicated, and protein content measured using the BCA protein assay kit. […] HRP was detected using the ECL chemiluminescent system after the membranes had been washed four times.
(§7) Quantification of data obtained on film (Kodak X-omat) was accomplished with a GS800 imaging densitometer (Bio-Rad Laboratories) under nonsaturating conditions with local background subtraction. […]

[3] = test system: Insulin receptor substrate-I (Tyr941); assay: Western blot of IRS-1 phosphorylation in H4IIE cells; type: cell-based, rat; settings: 6 minutes
Protocol: as §4
as §1, with “state. […]” for “state.”
as §6, §7

[4] = test system: mitogen-activated protein kinase (MAPK); assay: Western blot of MAPK phosphorylation in FAO hepatoma cells; type: cell-based, rat
Protocol: FAO cells are related to H4IIE since both cell lines were derived from Reuber H35 cells (Richardson et al., 1969, J. Cell Biol. 40: 236-247). […] FAO hepatoma cells were propagated under the same culture conditions used for H4IIE cells. Quiescent FAO cells were obtained by placing the cells into serum-free medium for 3 days.
Cultures of quiescent H4IIE cells or quiescent FAO cells were placed into 12-well culture dishes containing 2 mL serum-free medium, and then stimulated by direct addition of the inhibitors listed in Table 1 (volumes of additions were 10 μL or less) without replacing the medium. Inhibitors were added 10 minutes before the stimulating agents except for pertussis toxin which was added 4 hours prior. The cells in 12-well culture dishes were incubated with stimulating agents for 6 minutes and rinsed with phosphate buffered saline (PBS; 0.9% NaCl, 0.1 M Na3PO4, pH 7.1).
as §3, §7

[5] = test system: Insulin receptor (Tyr1146); assay: Western blot of insulin receptor phosphorylation in H4IIE cells; type: cell-based, rat; settings: 6 minutes
Protocol: as §4
as §1, with “state. […]” for “state.”
as §6, §7

Src (Tyr527) = assay: Western blot of Src phosphorylation in H4IIE cells; type: cell-based, rat; settings: 6 minutes
Protocol: as §4
as §1, with “state. […]” for “state.”
as §6, §7

plasma glucose = settings: normal rats; synthetic D-CI intragastrically 2 hours before intraperitoneal glucose load (4 g/kg); cited from earlier work
GSK3 (Ser21/9) = assay: Western blot of GSK3 phosphorylation in H4IIE cells; type: cell-based, rat; settings: 6 minutes
Protocol: as §4
as §1, with “state. […]” for “state.”
as §6, §7

[6] = test system: S6 ribosomal protein (Ser235/236); assay: Western blot of ribosomal protein S6 phosphorylation in H4IIE cells; type: cell-based, rat; settings: 6 minutes
Protocol: as §4, with “Myo-inositol (Sigma-Aldrich Canada Ltd.) and D-chiro-inositol (Industrial Research Ltd., Wellington, New Zealand) were dissolved in water at an equal concentration to the amounts present in the BWE (Table 3) and 2 μL of each solution (0.1% v/v final concentration) was added directly to cells.” left out
as §6, §7

[7] = insulin-stimulated, 6 min, 15-min preincubation with the inhibitor (None = insulin alone), one experiment
[8] = BWE-stimulated, 15-min preincubation with the inhibitor (None = BWE alone)
[9] = insulin-stimulated, 15-min preincubation with the inhibitor (None = insulin alone)

For `COc1cccc(-c2cc(=O)c3ccccc3o2)c1N` [PD98059], which “p42/44 P-MAPK (Thr202/Tyr204) phosphorylation, stimulation (fold) relative to the control” value ([1]; BWE-stimulated, 6 min, 15-min preincubation with the inhibitor (None = BWE alone), one experiment) is on record?
Its value is 1.00 fold.

And the “p42/44 P-MAPK (Thr202/Tyr204) phosphorylation, stimulation (fold) relative to the control” value [1, 7]?
The value was 1 fold.

And the “effect of the inhibitor on insulin- and BWE-stimulated phosphorylation of MAPK” value ([1]; preincubation with inhibitor, then insulin or BWE for 6 minutes)?
Its value is “inhibited”.

And the “PDK-1 (Ser241) phosphorylation, stimulation (fold) relative to the control” value (PDK-1 (Ser241); [8])?
The value was 0.54 fold.

What about the “PDK-1 (Ser241) phosphorylation, stimulation (fold) relative to the control” value (PDK-1 (Ser241); [9]) of the same molecule?
Its value is 1.89 fold.

And the “effect of the inhibitor on insulin-stimulated phosphorylation of p70S6K (Thr389)” value ([2]; 15-minute pre-incubation with inhibitor, then INS 6 minutes)?
Its value is “independent of MAPK”.

What about the “effect of the inhibitor on insulin- and BWE-stimulated phosphorylation of p70S6K (Thr421)” value ([2]; 15-minute pre-incubation with inhibitor, then INS or BWE 6 minutes) of the same molecule?
Its value is “MAPK-dependent (PD98059 sensitive)”.

What about the “Raf (Ser259) phosphorylation, stimulation (fold) relative to the control” value (Raf (Ser259); [8]) of the same molecule?
The value was 0.20 fold.

What about the “Raf (Ser259) phosphorylation, stimulation (fold) relative to the control” value (Raf (Ser259); [9]) of the same molecule?
Its value is 0.20 fold.

For `OC1C(O)C(O)C(O)C(O)C1O` [D-CI, D-chiro-inositol], which “phosphorylation of MAPK (FIG. 9)” value [1] is on record?
Its value is “neither D-CI nor MI increased phosphorylation”.

What about the “phosphorylation of Akt” value (Akt (Ser473)) of the same molecule?
The value was “do not provide comparable stimulation”.

And the “phosphorylation of IRS-1” value [3]?
Its value is “do not provide comparable stimulation”.

What about the “phosphorylation of MAPK in FAO cells (FIG. 10)” value [4] of the same molecule?
Its value is “did not”.

What about the “phosphorylation of InsR” value [5] of the same molecule?
The value was “do not provide comparable stimulation”.

And the “phosphorylation of Src” value (Src (Tyr527))?
The value was “do not provide comparable stimulation”.

What about the “decrease in plasma glucose” value (plasma glucose) of the same molecule?
The value was 30-50%.

And the “phosphorylation of p70S6K (Thr421)” value ([2]; 6 minutes)?
The value was “unable to effect phosphorylation”.

And the “phosphorylation of GSK3” value (GSK3 (Ser21/9))?
Its value is “do not provide comparable stimulation”.

For `O[C@H]1[C@H](O)[C@@H](O)[C@H](O)[C@@H](O)[C@H]1O` [MI, myo-inositol], which “phosphorylation of MAPK (FIG. 9)” value [1] is on record?
The value was “neither D-CI nor MI increased phosphorylation”.

And the “phosphorylation of Akt” value (Akt (Ser473))?
Its value is “do not provide comparable stimulation”.

What about the “phosphorylation of IRS-1” value [3] of the same molecule?
The value was “do not provide comparable stimulation”.

What about the “phosphorylation of MAPK in FAO cells (FIG. 10)” value [4] of the same molecule?
The value was “did not”.

And the “phosphorylation of InsR” value [5]?
Its value is “do not provide comparable stimulation”.

And the “phosphorylation of Src” value (Src (Tyr527))?
The value was “do not provide comparable stimulation”.

And the “phosphorylation of p70S6K (Thr421)” value ([2]; 6 minutes)?
Its value is “unable to effect phosphorylation”.

And the “phosphorylation of GSK3” value (GSK3 (Ser21/9))?
Its value is “do not provide comparable stimulation”.

Which results are given for “insulin: Insulin (Sigma-Aldrich) dissolved in water, positive comparator”?
phosphorylation of MAPK (FIG. 9) [1]: increased the phosphorylation of MAPK; phosphorylation of MAPK, stimulation (fold) relative to the control (Table 6) ([1]; insulin treatment, 6 min, 15-min preincubation with PKA/PKC inhibitor (None = insulin alone), one experiment): 3.53 fold; p42/44 P-MAPK (Thr202/Tyr204) phosphorylation, stimulation (fold) relative to the control [1, 7]: 13.3 fold; phosphorylation of ribosomal protein S6 [6]: insulin did; phosphorylation of Akt (Akt (Ser473)): phosphorylated in response to insulin; phosphorylation of IRS-1 [3]: phosphorylated in response to insulin; phosphorylation of MAPK in FAO cells (FIG. 10) [4]: stimulated MAPK phosphorylation; phosphorylation of InsR [5]: phosphorylated in response to insulin; also recorded: stimulated by insulin only; phosphorylation of Src (Src (Tyr527)): phosphorylated in response to insulin; phosphorylation (activation) of PDK (PDK-1 (Ser241); 6 minutes): not stimulated; PDK-1 (Ser241) phosphorylation, stimulation (fold) relative to the control (PDK-1 (Ser241); [9]): 1.57 fold; phosphorylation of p70S6K (Thr389) ([2]; 6 minutes): stimulates the phosphorylation of p70^S6K on both residues; phosphorylation of p70S6K (Thr421) ([2]; 6 minutes): stimulates the phosphorylation of p70^S6K on both residues; phosphorylation (activation) of RAF (Raf (Ser259); 6 minutes): not stimulated; Raf (Ser259) phosphorylation, stimulation (fold) relative to the control (Raf (Ser259); [9]): 0.53 fold; phosphorylation of GSK3 (GSK3 (Ser21/9)): phosphorylated in response to insulin
